Like-named read-outs stand apart in the source and are kept apart here. Marks after values point to notes of the source that are not given here.
Columns and labels:
Cough in Guinea Pigs = system: Cough in Guinea Pigs; design: species or system Dunkin Hartley guinea pigs; conditions: guinea pig, in vivo
[1] = biological target: T1, Delta opiate binding sites (Rattus norvegicus, UniProt P33533); design: species or system Sprague-Dawley rats
T1 construct: from tissue; host or cells: rat brain minus cerebellum, twice-washed P2 membrane fraction
T1 sequence (P33533 whole entry): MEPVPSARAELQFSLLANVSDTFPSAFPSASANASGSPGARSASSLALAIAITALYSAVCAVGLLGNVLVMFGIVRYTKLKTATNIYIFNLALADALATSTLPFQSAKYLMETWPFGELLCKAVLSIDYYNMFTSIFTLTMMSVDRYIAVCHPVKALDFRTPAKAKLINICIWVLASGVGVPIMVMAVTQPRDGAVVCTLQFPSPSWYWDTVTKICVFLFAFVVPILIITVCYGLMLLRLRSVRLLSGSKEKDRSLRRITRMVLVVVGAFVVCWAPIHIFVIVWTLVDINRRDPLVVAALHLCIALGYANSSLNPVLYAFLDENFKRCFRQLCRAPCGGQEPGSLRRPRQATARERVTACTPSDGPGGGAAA

Mu opiate binding sites = biological target: T2, Mu opiate binding sites (Rattus norvegicus, UniProt P33535); design: species or system Sprague-Dawley rats
T2 construct: from tissue; host or cells: rat brain minus cerebellum, twice-washed P2 membrane fraction
T2 sequence (P33535 whole entry): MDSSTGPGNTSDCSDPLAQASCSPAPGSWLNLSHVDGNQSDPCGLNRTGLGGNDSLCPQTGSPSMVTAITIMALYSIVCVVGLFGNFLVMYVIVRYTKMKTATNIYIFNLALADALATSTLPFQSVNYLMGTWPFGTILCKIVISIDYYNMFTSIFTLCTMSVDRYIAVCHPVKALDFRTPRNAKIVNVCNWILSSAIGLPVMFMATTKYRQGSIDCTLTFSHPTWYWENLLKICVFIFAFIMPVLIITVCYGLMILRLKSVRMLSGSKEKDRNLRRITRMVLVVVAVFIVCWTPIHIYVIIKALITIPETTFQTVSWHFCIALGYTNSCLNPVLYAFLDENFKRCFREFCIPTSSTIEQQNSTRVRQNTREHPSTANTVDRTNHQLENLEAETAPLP

For COc1ccc2c3c1O[C@H]1[C@@H](O)C=C[C@H]4[C@@H](C2)N(C)CC[C@@]341 [(-)-codeine], the inhibition of cough (Cough in Guinea Pigs) was 46%, the “% Inhibition of Coughing 5 min” value (Cough in Guinea Pigs; po) was 42.7*** % and the “% Inhibition of Coughing 10 min” value (Cough in Guinea Pigs; po) was 38.7*** %. The “% Inhibition of Coughing 5 min” value (Cough in Guinea Pigs; sc) was 46.2*** % and the “% Inhibition of Coughing 10 min” value (Cough in Guinea Pigs; sc) was 46.1*** %.
CC(C)C[C@H](NC(=O)[C@H](Cc1ccccc1)NC(=O)CNC(=O)[C@H](NC(=O)[C@@H](N)Cc1ccc(O)cc1)[C@H](C)O)C(=O)N[C@H](C(=O)O)[C@@H](C)O [DTLET, D-Thr²-Leu-Enkephalin-Thr] was tested, and the IC50 ([1]; read-out: IC₅₀ Delta) was 2.7 nM, the Ki ([1]; read-out: Ki Delta) was 1.2 nM and the IC50 (Mu opiate binding sites; read-out: IC₅₀ Mu) was 184 nM. It also gave a Ki (Mu opiate binding sites; read-out: Ki Mu) of 105 nM.
